Source: US4335249A, “Herbicidal diphenyl ethers, sulfides, sulfoxides and sulfones” (Rohm and Haas Company, priority 1976, dated 1982)

Experiments:
Assay type in all cases: in vivo
[1] = test system: barnyardgrass (Echinochloa crusgalli); assay: Postemergence herbicidal activity, barnyardgrass; details: Post, 2 lb/A; for pest or weed control at 2241.7 g/ha: Echinochloa crus-galli, post-emergence, 336 h
Procedure: (§1) Using the procedure described below, compounds of the invention are evaluated for control of several of the following plant species:
(§2) The following est procedure is employed. Seeds of selected crops and weeds are planted in soil in flats. For preemergence tests, the flats are treated with the test compound immediately after the planting. For postemergence tests, the seeds are allowed to germinate, and after two weeks the flats are treated with the test compound. The compound to be evaluated is dissolved in acetone, diluted with water, and sprayed over the flats using a carrier volume equivalent to 50 gallons per acre at the rate of application (pounds per acre, lb/A.) specified in the tables.

[2] = test system: tomato (Lycopersicon esculentum); assay: Postemergence herbicidal activity, tomato; details: Post, 2 lb/A; for pest or weed control at 2241.7 g/ha: Solanum lycopersicum, post-emergence, 336 h
Procedure: as §1
as §2, with “tables. About two weeks after the application of the test compound, the state of growth of the plants is observed and the phytotoxic effect of the compound is evaluated. Tables III and IV give the average percent control achieved by test compounds in terms of the percent of the plants which are killed by the compounds.” for “tables.”

[3] = test system: morningglory (Ipomoca spp.); assay: Preemergence herbicidal activity, morningglory; details: 2 lb/A; for % control, Morningglory: Pre; for pest or weed control at 2241.7 g/ha: Ipomoea, pre-emergence, 336 h
Procedure: as §1
as §2, with “tables. About two weeks after the application of the test compound, the state of growth of the plants is observed and the phytotoxic effect of the compound is evaluated. Tables III and IV give the average percent control achieved by test compounds in terms of the percent of the plants which are killed by the compounds.” for “tables.”

foxtail (Setaria spp.) [4] = assay: Preemergence herbicidal activity, foxtail; details: Pre, 2 lb/A; for pest or weed control at 2241.7 g/ha: Setaria, pre-emergence, 336 h
Procedure: as §1
as §2, with “tables. About two weeks after the application of the test compound, the state of growth of the plants is observed and the phytotoxic effect of the compound is evaluated. Tables III and IV give the average percent control achieved by test compounds in terms of the percent of the plants which are killed by the compounds.” for “tables.”

[5] = test system: tomato (Lycopersicon esculentum); assay: Preemergence herbicidal activity, tomato; details: Pre, 2 lb/A; for pest or weed control at 2241.7 g/ha: Solanum lycopersicum, pre-emergence, 336 h
Procedure: as §1
as §2, with “tables. About two weeks after the application of the test compound, the state of growth of the plants is observed and the phytotoxic effect of the compound is evaluated. Tables III and IV give the average percent control achieved by test compounds in terms of the percent of the plants which are killed by the compounds.” for “tables.”

[6] = test system: downybrome (Bromus tectorum); assay: Preemergence herbicidal activity, downybrome; details: Pre, 2 lb/A; for pest or weed control at 2241.7 g/ha: Bromus tectorum, pre-emergence, 336 h
Procedure: as §1
as §2, with “tables. About two weeks after the application of the test compound, the state of growth of the plants is observed and the phytotoxic effect of the compound is evaluated. Tables III and IV give the average percent control achieved by test compounds in terms of the percent of the plants which are killed by the compounds.” for “tables.”

[7] = test system: yellow nutsedge (Cyperus esculentus); assay: Preemergence herbicidal activity, yellow nutsedge; details: 2 lb/A; for % control, Nutsedge: Pre; for pest or weed control at 2241.7 g/ha: Cyperus, pre-emergence, 336 h
Procedure: as §1
as §2, with “tables. About two weeks after the application of the test compound, the state of growth of the plants is observed and the phytotoxic effect of the compound is evaluated. Tables III and IV give the average percent control achieved by test compounds in terms of the percent of the plants which are killed by the compounds.” for “tables.”

[8] = test system: yellow nutsedge (Cyperus esculentus); assay: Postemergence herbicidal activity, yellow nutsedge; details: 2 lb/A; for % control, Nutsedge: Post; for pest or weed control at 2241.7 g/ha: Cyperus, post-emergence, 336 h
Procedure: as §1
as §2, with “tables. About two weeks after the application of the test compound, the state of growth of the plants is observed and the phytotoxic effect of the compound is evaluated. Tables III and IV give the average percent control achieved by test compounds in terms of the percent of the plants which are killed by the compounds.” for “tables.”

[9] = test system: barnyardgrass (Echinochloa crusgalli); assay: Preemergence herbicidal activity, barnyardgrass; details: Pre, 2 lb/A; for pest or weed control at 2241.7 g/ha: Echinochloa crus-galli, pre-emergence, 336 h
Procedure: as §1, §2

foxtail (Setaria spp.) [10] = assay: Postemergence herbicidal activity, foxtail; details: Post, 2 lb/A; for pest or weed control at 2241.7 g/ha: Setaria, post-emergence, 336 h
Procedure: as §1
as §2, with “tables. About two weeks after the application of the test compound, the state of growth of the plants is observed and the phytotoxic effect of the compound is evaluated. Tables III and IV give the average percent control achieved by test compounds in terms of the percent of the plants which are killed by the compounds.” for “tables.”

[11] = test system: downybrome (Bromus tectorum); assay: Postemergence herbicidal activity, downybrome; details: Post, 2 lb/A; for pest or weed control at 2241.7 g/ha: Bromus tectorum, post-emergence, 336 h
Procedure: as §1
as §2, with “tables. About two weeks after the application of the test compound, the state of growth of the plants is observed and the phytotoxic effect of the compound is evaluated. Tables III and IV give the average percent control achieved by test compounds in terms of the percent of the plants which are killed by the compounds.” for “tables.”

[12] = test system: velvetleaf (Abutilon theophrasti); assay: Postemergence herbicidal activity, velvetleaf; details: 2 lb/A; for % control, Velvetleaf: Post; for pest or weed control at 2241.7 g/ha: Abutilon theophrasti, post-emergence, 336 h
Procedure: as §1, §2

[13] = test system: morningglory (Ipomoca spp.); assay: Postemergence herbicidal activity, morningglory; details: 2 lb/A; for % control, Morningglory: Post; for pest or weed control at 2241.7 g/ha: Ipomoea, post-emergence, 336 h
Procedure: as §1
as §2, with “tables. About two weeks after the application of the test compound, the state of growth of the plants is observed and the phytotoxic effect of the compound is evaluated. Tables III and IV give the average percent control achieved by test compounds in terms of the percent of the plants which are killed by the compounds.” for “tables.”

wild oats (Avena fatua) [14] = assay: Postemergence herbicidal activity, wild oats; details: Post, 2 lb/A; for pest or weed control at 2241.7 g/ha: Avena fatua, post-emergence, 336 h, read-out: % control, Wild oat
Procedure: as §1
as §2, with “tables. About two weeks after the application of the test compound, the state of growth of the plants is observed and the phytotoxic effect of the compound is evaluated. Tables III and IV give the average percent control achieved by test compounds in terms of the percent of the plants which are killed by the compounds.” for “tables.”

marigold (Tagetes spp.) [15] = assay: Preemergence herbicidal activity, marigold; details: 2 lb/A; for % control, Marigold: Pre; for pest or weed control at 2241.7 g/ha: pre-emergence, 336 h
Procedure: as §1
as §2, with “tables. About two weeks after the application of the test compound, the state of growth of the plants is observed and the phytotoxic effect of the compound is evaluated. Tables III and IV give the average percent control achieved by test compounds in terms of the percent of the plants which are killed by the compounds.” for “tables.”

marigold (Tagetes spp.) [16] = assay: Postemergence herbicidal activity, marigold; details: 2 lb/A; for % control, Marigold: Post; for pest or weed control at 2241.7 g/ha: post-emergence, 336 h
Procedure: as §1
as §2, with “tables. About two weeks after the application of the test compound, the state of growth of the plants is observed and the phytotoxic effect of the compound is evaluated. Tables III and IV give the average percent control achieved by test compounds in terms of the percent of the plants which are killed by the compounds.” for “tables.”

wild oats (Avena fatua) [17] = assay: Preemergence herbicidal activity, wild oats; details: Pre, 2 lb/A; for pest or weed control at 2241.7 g/ha: Avena fatua, pre-emergence, 336 h, read-out: % control, Wild oat
Procedure: as §1
as §2, with “tables. About two weeks after the application of the test compound, the state of growth of the plants is observed and the phytotoxic effect of the compound is evaluated. Tables III and IV give the average percent control achieved by test compounds in terms of the percent of the plants which are killed by the compounds.” for “tables.”

[18] = test system: cocklebur (Xanthium pensylvanicum); assay: Postemergence herbicidal activity, cocklebur; details: 2 lb/A; for % control, Cocklebur: Post; for pest or weed control at 2241.7 g/ha: Xanthium strumarium, post-emergence, 336 h
Procedure: as §1
as §2, with “tables. About two weeks after the application of the test compound, the state of growth of the plants is observed and the phytotoxic effect of the compound is evaluated. Tables III and IV give the average percent control achieved by test compounds in terms of the percent of the plants which are killed by the compounds.” for “tables.”

[19] = test system: cocklebur (Xanthium pensylvanicum); assay: Preemergence herbicidal activity, cocklebur; details: 2 lb/A; for % control, Cocklebur: Pre; for pest or weed control at 2241.7 g/ha: Xanthium strumarium, pre-emergence, 336 h
Procedure: as §1
as §2, with “tables. About two weeks after the application of the test compound, the state of growth of the plants is observed and the phytotoxic effect of the compound is evaluated. Tables III and IV give the average percent control achieved by test compounds in terms of the percent of the plants which are killed by the compounds.” for “tables.”

[20] = test system: velvetleaf (Abutilon theophrasti); assay: Preemergence herbicidal activity, velvetleaf; details: Pre, 2 lb/A; for pest or weed control at 2241.7 g/ha: Abutilon theophrasti, pre-emergence, 336 h
Procedure: as §1
as §2, with “tables. About two weeks after the application of the test compound, the state of growth of the plants is observed and the phytotoxic effect of the compound is evaluated. Tables III and IV give the average percent control achieved by test compounds in terms of the percent of the plants which are killed by the compounds.” for “tables.”

Row | SMILES | % control, Tomato [2] [%] | % control, Morningglory [3] [%] | % control, Foxtail (foxtail (Setaria spp.) [4]) [%] | % control, Tomato [5] [%] | % control, Downybrome [6] [%] | % control, Nutsedge [7] [%] | % control, Nutsedge [8] [%] | % control, Barnyardgrass [9] [%] | % control, Foxtail (foxtail (Setaria spp.) [10]) [%] | % control, Downybrome [11] [%] | % control, Velvetleaf [12] [%] | % control, Morningglory [13] [%] | % control, Wild oat (wild oats (Avena fatua) [14]) [%] | % control, Marigold (marigold (Tagetes spp.) [15]) [%] | % control, Marigold (marigold (Tagetes spp.) [16]) [%] | % control, Wild oat (wild oats (Avena fatua) [17]) [%] | % control, Cocklebur [18] [%] | % control, Cocklebur [19] [%] | % control, Velvetleaf [20] [%] | pest or weed control at 2241.7 g/ha [1] [%] | further results
1 | CC(Oc1ccc(Oc2ccc(C(F)(F)F)cc2Cl)cc1)C(=O)O (centres unmarked) [Example 12] | 0 | 0 | 100 | 0 | 0 | 0 | 0 | 100 | 100 | 60 | 0 | 0 | 70 | 0 | 0 | 60 | 0 | 0 | 0 | – | % control, Barnyardgrass [1]: 100%
2 | CC(Oc1ccc(Oc2ccc(C(F)(F)F)cc2Cl)cc1)C(=O)O (centres unmarked) [Example 15] | 0 | 40 | 100 | 0 | 0 | 0 | 0 | 100 | 90 | 0 | 0 | 0 | 20 | 0 | 0 | 0 | 0 | 0 | 0 | 90 | –
3 | CCCCCCCCOC(=O)C(C)Oc1ccc(Oc2ccc(C(F)(F)F)cc2Cl)cc1 (centres unmarked) [Example 26] | – | – | – | – | – | – | – | – | – | – | – | – | – | – | – | – | – | – | – | 100 | pest or weed control at 2241.7 g/ha [2]: 30%; pest or weed control at 2241.7 g/ha [3]: 0%; pest or weed control at 2241.7 g/ha (foxtail (Setaria spp.) [4]): 0%; pest or weed control at 2241.7 g/ha [5]: 0%; pest or weed control at 2241.7 g/ha [6]: 0%; pest or weed control at 2241.7 g/ha [7]: 0%; pest or weed control at 2241.7 g/ha [8]: 20%; pest or weed control at 2241.7 g/ha [9]: 50%; pest or weed control at 2241.7 g/ha (foxtail (Setaria spp.) [10]): 100%; pest or weed control at 2241.7 g/ha [11]: 50%; pest or weed control at 2241.7 g/ha [12]: 50%; pest or weed control at 2241.7 g/ha [13]: 70%; pest or weed control at 2241.7 g/ha (wild oats (Avena fatua) [14]): 20%; pest or weed control at 2241.7 g/ha (marigold (Tagetes spp.) [15]): 0%; pest or weed control at 2241.7 g/ha (marigold (Tagetes spp.) [16]): 70%; pest or weed control at 2241.7 g/ha (wild oats (Avena fatua) [17]): 50%; pest or weed control at 2241.7 g/ha [18]: 60%; pest or weed control at 2241.7 g/ha [19]: 0%; pest or weed control at 2241.7 g/ha [20]: 0%
4 | CCCOC(=O)C(C)Oc1ccc(Oc2ccc(C(F)(F)F)cc2Cl)cc1 (centres unmarked) [Example 32] | – | – | – | – | – | – | – | – | – | – | – | – | – | – | – | – | – | – | – | 100 | pest or weed control at 2241.7 g/ha [2]: 30%; pest or weed control at 2241.7 g/ha [3]: 0%; pest or weed control at 2241.7 g/ha (foxtail (Setaria spp.) [4]): 100%; pest or weed control at 2241.7 g/ha [5]: 0%; pest or weed control at 2241.7 g/ha [6]: 80%; pest or weed control at 2241.7 g/ha [7]: 0%; pest or weed control at 2241.7 g/ha [8]: 0%; pest or weed control at 2241.7 g/ha [9]: 100%; pest or weed control at 2241.7 g/ha (foxtail (Setaria spp.) [10]): 100%; pest or weed control at 2241.7 g/ha [11]: 100%; pest or weed control at 2241.7 g/ha [12]: 30%; pest or weed control at 2241.7 g/ha [13]: 0%; pest or weed control at 2241.7 g/ha (wild oats (Avena fatua) [14]): 100%; pest or weed control at 2241.7 g/ha (marigold (Tagetes spp.) [15]): 0%; pest or weed control at 2241.7 g/ha (marigold (Tagetes spp.) [16]): 20%; pest or weed control at 2241.7 g/ha (wild oats (Avena fatua) [17]): 80%; pest or weed control at 2241.7 g/ha [18]: 0%; pest or weed control at 2241.7 g/ha [19]: 0%; pest or weed control at 2241.7 g/ha [20]: 0%
